ChEMBL document CHEMBL3507680, “University of Dundee, Gates Library screen for HepG2 cell viability”

Test: Human HepG2 cell viability assay in 384 well format
Format: toxicity, cell-based
Set-up: dose 125 nL, time 70.5 hour; concentration not given beside the values
Conditions: HepG2 cells, read-out: Inhibition

| Structure (SMILES) | cytotoxicity at 70.5 h |
| --- | --- |
| O=C(NC1CCN(CC2CC2)C1)N1CCC(OC2CCCCC2)CC1 (stereo not drawn) | 14.5% |
| CC(O)c1cn(CC2CCN(C(=O)c3cccc(N(C)C)c3)CC2)nn1 (stereo not drawn) | -4.18% |
| CCCc1nc(NCCCO)c2c(n1)c(C)nn2CC | -14% |
| Cc1cccc(NC(=O)C2CC(=O)n3cnnc3S2)c1 (stereo not drawn) | -0.584% |
| CN1CC(=O)N(c2cccc(F)c2)CC12CCN(CCO)C2 (stereo not drawn) | -5.44% |
| COc1cc(CN)c(OC)c2c1OCO2 | -15.1% |
| Cc1cc(C)n(CC2CCCN2C(=O)Cc2c(C)nn(C)c2C)n1 (stereo not drawn) | -0.624% |
| O=C(Nc1cccnc1)[C@H]1CO[C@H]2CCN(c3ncc(F)cn3)C[C@H]2C1 | 4.85% |
| CNC(=O)CCN1CCCCCC1c1ccc(C)o1 (stereo not drawn) | 13.3% |
| Cc1ccc(N2CCCC(NCc3ccncc3)C2)nn1 (stereo not drawn) | 11.6% |
| COCC1COCCC12CCN(C(=O)COc1ccccc1C)CC2 (stereo not drawn) | -2.98% |
| CN(C)CCOCC1CN(C(=O)c2cscn2)Cc2ccnn2C1 (stereo not drawn) | -8.28% |
| Cc1nc(CN2CCCN(C(=O)c3sccc3C#N)CC2)cs1 | 0.736% |
| Cc1cc(C)c(CNC(=O)NCc2nnc3n2CCCCC3)c(=O)[nH]1 | -5.09% |
| CS(=O)(=O)Nc1ccn(Cc2ccc(Cl)cc2)n1 | 10.5% |
| N#Cc1cnc(NCc2cccc(C(=O)N3CCCC3)c2)c(Cl)c1 | -1.9% |
| Cc1ccc(N2CCC3(CCN(C(=O)c4ccsc4)CC3)C2)nn1 | 4.86% |
| CC(CC#N)N(C)Cc1ccc(F)cc1F (stereo not drawn) | -6.44% |
| CCCOc1ccc(C(=O)N[C@@H]2CCNC[C@H]2O)cc1Cl | 2.76% |
| Nc1cc(C(=O)N2C[C@H]3CC[C@@H]2CN(Cc2cccnc2)C3)ccn1 | -6.5% |
| Cc1cc(C(F)(F)F)nn1C(C)C(=O)Nc1ccc(Cl)cn1 (stereo not drawn) | -6.74% |
| CS(=O)(=O)N1CCC2(CC1)CC(CC(=O)N1CCCC1)c1ccccc12 (stereo not drawn) | -10.4% |
| COCCC1COC2(CCN(C(=O)C3CCC3)CC2)C1 (stereo not drawn) | -3.7% |

| Structure (SMILES) | cytotoxicity at 70.5 h |
| --- | --- |
| O=C1CNc2ncnc(Nc3cnn(Cc4ccccc4F)c3)c2N1 | 27.9% |
| CCc1c(C)nc(C)nc1N1CCC(NCCSc2nnnn2C)CC1 | -6.49% |
| CCc1ncc(S(C)(=O)=O)c(C2CCCNC2)n1 (stereo not drawn) | -5.94% |
| COCC1c2c(cnn2C)CCN1C(=O)c1cc(C)on1 (stereo not drawn) | -0.669% |
| O=C(Nc1cnn(CC(=O)N2CCCCO2)c1)c1ccccn1 | 2.98% |
| Fc1ccc(CN2CCC3(CC2)CCN(c2ncccn2)CC3)cc1 | 10.9% |
| CN(C)CCN1C[C@@H]2CN(C(=O)C3CCOC3)C[C@@H]2C1=O (stereo partly drawn) | 23.4% |
| O=C(NCC[S+]([O-])c1ccccc1)c1ccc2[nH]c(=O)[nH]c2c1 (stereo not drawn) | -6.4% |
| CC(C)n1[nH]c(=O)c2c1NC(=O)CC2c1ccc(S(C)(=O)=O)cc1 (stereo not drawn) | -17.1% |
| Cc1noc(-c2ccc(N[C@H]3CCCCNC3=O)nc2)n1 | -1.42% |
| Fc1ccccc1CN1C[C@@H]2OCCN(c3ncccn3)[C@@H]2C1 | -13.2% |
| CN1CCCCC[C@@H]2[C@@H]1[C@H](c1ccccc1)CN2C(=O)c1cccnc1 | 3.63% |
| CS(=O)(=O)NC[C@H]1Cn2c(-c3ccc(Cl)cc3)cnc2CO1 | -7.36% |
| CC(=O)N1CCC(C(=O)NCc2cc[nH]n2)(c2ccccc2)CC1 | -5.74% |
| CCn1cc(CN2CCCC(c3[nH]ncc3-c3ccc(C)cc3)C2)cn1 (stereo not drawn) | -16.8% |
| COc1cccc(CC2CN(C(=O)c3ccnn3C)CCO2)c1 (stereo not drawn) | -4.96% |
| CCn1c(C)cc(C(=O)N2CCc3nnc(N)cc3C2)c1C | -0.105% |
| O=C(NCc1cccc(F)c1F)c1cc(CN2CCCC(O)C2)on1 (stereo not drawn) | 4.85% |
| NC(=O)c1cnc(NC2CCN(c3ccccc3)CC2)c(Cl)c1 | -1.28% |
| CCCN(C)CCC(=O)N1CCCC1Cn1cccn1 (stereo not drawn) | 15.3% |
| NC(=O)c1ccc(CN2CCCC(N3CCCC3)C2)cc1 (stereo not drawn) | -7.14% |
| CCn1cc(Cl)c(C(=O)Nc2ccc3c(c2)C(C)(C)C(=O)N3C)n1 | -16.6% |
| Cc1cc(C2CCCCN2C(=O)CN2C(=O)OC(C)(C)C2=O)no1 (stereo not drawn) | -7.73% |

| Structure (SMILES) | cytotoxicity at 70.5 h |
| --- | --- |
| Cn1cc(-c2cnc(N3CCOCC3)nc2)cc1C(=O)NC1CC1 | 23.6% |
| Cn1ncc(NC(=O)Cn2ccc(-c3ccc(F)cc3)n2)n1 | 0.148% |
| O=C(NCCC(=O)N1CCCc2ccccc21)c1ccc(F)cc1F | -14.2% |
| O=c1n(CCNCc2ccc3ccccc3c2)nc2ccccn12 | -0.105% |
| O=S(=O)(c1c(N2CCCCC2)ccc2nonc12)N1CCCCC1 | -8.4% |
| O=C(COc1ccc(-n2cccn2)nn1)NC1CCCCC1 | 0.192% |
| COCCN1CCN(Cc2c(C)noc2C)Cc2cccnc21 | -4.72% |
| CNC(=O)NC(=O)CN(C)C(c1cccnc1)c1ccc(F)cc1F (stereo not drawn) | -1.87% |
| Cc1cc(N2Cc3cnn(CCO)c3C2)nc(-c2ccccc2O)n1 | -4.43% |
| O=C(c1cc(Cl)c2c(c1)OCO2)N1CCN(c2cnccn2)CC1 | 0.695% |
| COCCNC(=O)c1cc(S(=O)(=O)N2CCCC2)cs1 | 14.3% |
| CN1CCN(C(=O)c2ccc(=O)n(C)c2)c2ccccc21 | -1.74% |
| CC(C)CNC(=O)CNC(=O)NC(c1nccs1)C1CC1 (stereo not drawn) | 4.02% |
| COc1ccc(N2CCC(C(=O)/N=c3/[nH]ccs3)CC2)nn1 | -7.23% |
| CC(C)(C)OC(=O)Cn1nc(C2CC2)cc(C(F)(F)F)c1=O | -2.4% |
| CC(C)N1CCO[C@H]2CN(C(=O)c3ccncc3F)C[C@H]21 | -4.09% |
| Cc1cc2nc(C(C)C)cc(N3CCC(Oc4ncccn4)CC3)n2n1 | 48.7% |
| CN(Cc1ccc(F)cc1)C(=O)CN1CCCCC1Cn1cncn1 (stereo not drawn) | -3.07% |
| COCc1nc(CN(CC(N)=O)C(C)C)cs1 | -3.43% |
| Fc1cccc(CN2C[C@@H]3CN(Cc4ccccn4)C[C@@H]3C2)c1 | -5.09% |
| CCC(C(=O)NC(C)(C)C)n1ccc2ncccc2c1=O (stereo not drawn) | -17.5% |
| CCc1ccc(CN2CCC(CNC(=O)c3ccc(C)nc3)C2)nc1 (stereo not drawn) | 16% |
| CCN1CC(COC(=O)c2ccc(Br)cc2F)CC1=O (stereo not drawn) | -6.68% |

| Structure (SMILES) | cytotoxicity at 70.5 h |
| --- | --- |
| CC(C(=O)O)N1CCc2onc(-c3ccc(F)c(F)c3)c2C1 (stereo not drawn) | -6.87% |
| O=C([C@H]1C[C@H]2OCC[C@H]2N(Cc2ccoc2)C1)N1CCCO1 | -5.69% |
| CCOC(=O)CCCNC(=O)CN1CCN(c2ncccn2)CC1 | -13.6% |
| CC(C)(CNc1cc(F)ccc1F)S(C)(=O)=O | 0.249% |
| Cc1ccc(CN(CCCN(C)C)Cc2cnc(N(C)C)nc2)o1 | 6.47% |
| CNC(=O)c1ccc(C2CN(CC(=O)N(C)C)CCO2)nc1 (stereo not drawn) | -5.57% |
| Cc1ccsc1C(=O)N1CCC(O)(CN2CCc3ccccc3C2)C1 (stereo not drawn) | -6.62% |
| CCN(Cc1nccn1C)C(=O)c1ccc(NCc2ccc(C)o2)nc1 | 27.2% |
| OCCCN(CCn1cncn1)c1ccccc1 | 30.6% |
| CC(=O)N(CCc1nc(-c2cc(C(N)=O)oc2C)cs1)C(C)C | -8.28% |
| Cn1cc(-c2nc(CN3CCOC(Cn4cncn4)C3)cs2)cn1 (stereo not drawn) | 1.83% |
| CC(C)(C)c1nc(CNC2CCCN(c3cccnn3)C2)no1 (stereo not drawn) | -0.0267% |
| O=C(COC[C@@H]1CC[C@H]2[C@H](CCN2Cc2ccco2)O1)N1CCCC1 | 24.3% |
| Cc1cc(N2CCC(Cc3ccccc3)CC2)ncn1 | -11.5% |
| CN1CCC(c2nnc(CN3CCC(O)CC3)n2C)CC1 | -5.78% |
| CN(C)C(=O)CCN1CC(c2ccccc2)(c2ccccc2)CCC1=O | 4.06% |
| CN(CCSc1nncn1C(C)(C)C)c1ccccc1 | 31% |
| CN(C)CCN1CCC2(CCN(C(=O)c3ccc(F)cc3)CC2)C1=O | -8.17% |
| CC1(CCC(=O)N2CCC(n3cc(C4(O)CCCC4)nn3)CC2)CC1 | 22.5% |
| N#Cc1ccnc(N2CCN(CC(O)c3cccc(F)c3)CC2)c1 (stereo not drawn) | -7.6% |
| COc1ncc(C)cc1NC(=O)COc1ccccc1F | 11.7% |
| Cc1cc(NCC2CCCO2)cc(=O)n1C (stereo not drawn) | -9.63% |
| COc1cc(F)ccc1NC(=O)NCCNC(=O)OC(C)(C)C | -14% |

| Structure (SMILES) | cytotoxicity at 70.5 h |
| --- | --- |
| CN(C)CCn1c(=O)oc2ccc(NC(=O)CC(C)(C)C)cc21 | -6.79% |
| O=C1CC[C@H](C(=O)N(Cc2cccc(Br)c2)C2CC2)N1 | 2.31% |
| O=C(c1cnco1)N1CCC(Cc2ccc3ncccc3c2)CC1 | 5.02% |
| CC1COCCN1Cc1nc(-c2cccc(C(F)(F)F)c2)no1 (stereo not drawn) | -2.89% |
| COc1ccc(-c2cc(C3CCOC3)c(C#N)c(N)n2)cn1 (stereo not drawn) | 18.9% |
| CC(C)c1nn(C)cc1CNCc1cccc(N(C)C)c1 | 6.7% |
| CCCN1CCC(Cc2nc(CN3CCN(C)CC3)no2)CC1 | -5.37% |
| COc1c(CNCc2cccc(Cn3cncn3)c2)c(C)nn1C | -0.463% |
| CC(=O)N1CCC2(CC1)CN(C(=O)c1cccnc1)c1ccc(F)cc12 | -3.83% |
| O=C(NC1CCCN(c2ccccc2F)C1)c1ccon1 (stereo not drawn) | -9.69% |
| Cc1cnc(CNC(=O)NCc2cccnc2N(C)C)s1 | -17.2% |
| CCc1cnc(N2CCCOC(CN3CCCC3)C2)nc1 (stereo not drawn) | 7.5% |
| CC(=O)Nc1nc(CS(=O)(=O)Cc2ccccc2)cs1 | 20.1% |
| CN(C)[C@@H]1CCN(C(=O)Cc2cccs2)[C@H]1Cc1cnn(C)c1 | -8.18% |
| CN(Cc1cccnc1)[C@@H]1CN(C(=O)CC2CC2)[C@@H]2CCCO[C@H]12 | 0.0586% |
| CC(C)CN1CCC2(CC1)C(=O)Nc1ccc(C(=O)NC(C)C)cc12 | -0.986% |
| CCn1/c(=N/C(=O)CSCC(=O)Nc2nccs2)sc2ccccc21 | -0.443% |
| CN(C)CCN1CC(C(=O)N2CCC(c3cc(=O)[nH]cn3)CC2)CC1=O (stereo not drawn) | 3.73% |
| CCn1c(CNCC2CCCN2c2cccnn2)nc2ccccc21 (stereo not drawn) | -9.03% |
| O=S1(=O)N=C(SCc2ccc(Cl)cc2)Nc2ccc(F)cc21 | 7.01% |
| CCCn1c(O)nnc1SCC1OCCc2ccccc21 (stereo not drawn) | -7.64% |
